Measured values reported in patent US12419888B2, “Methods of treating elevated plasma cholesterol” (INSTITUT DE CARDIOLOGIE DE MONTREAL, priority 2020, dated 2025).

Test system: LDLR protein levels in HepG2 cells
Assay: Western blot analysis of relative LDLR protein levels in HepG2 cells after treatment
Format: cell-based, human
Conditions: HepG2 cells incubated overnight with compound, 0.2 μM to 20 μM
Procedure: Cell culture, treatments and cell viability assay. For phenotypic screening of PCSK9 modulators and/or LDLR small molecule inducers, human HepG2 cells were incubated overnight in conditioned media containing chemical compounds resuspended in DMSO at concentration ranging from 0.2 μM to 20 μM. […] Following incubation, media have been replaced and cells incubated for 4 h with 100 μL of phenol red-free DMEM containing 0.5 mg/mL of MTT (3-[4,5-dimethylthiazol-2-yl]-2,5-diphenyltetrazolium bromide; thiazolyl blue; catalog no. M5655, Sigma-Aldrich), following manufacturer's instructions.
Western Blot Analysis, Immunocytochemistry and LDLR Activity Assay. Following incubation, cells were washed three times in phosphate-buffered saline (PBS) and lysed in radioimmune precipitation assay buffer (50 mM Tris/HCl, pH 8.0, 1% (v/v) Nonidet P-40, 0.5% sodium deoxycholate, 150 mM NaCl, and 0.1% (v/v) SDS) supplemented with a complete protease inhibitor mixture (catalog no. 11 697 498 001, Roche Applied Science). Proteins were separated by SDS polyacrylamide gel electrophoresis, blotted on nitrocellulose membranes (Bio-Rad), blocked incubated with indicated antibodies as described (Poirier S, et al., Cell Rep, 2015). For immunocytochemistry analysis, cells were permeabilized or not with 0.1% Triton X-100/PBS for 10 min, and incubated with 150 mM glycine, blocked and incubated with indicated primary and secondary antibodies. Immunofluorescence analyses were performed with an Olympus FluoView FV10i confocal microscope (Poirier et al., Cell Rep. 2015; 13(10):2064-2071). For LDLR activity assay, HepG2 cells were incubated overnight without or with a given compound in the presence of 5 μg/ml fluorescent labelled DiI-LDL (Alfa Aesar, Cat. #J65330) and co-stained for LDLR if applicable, as described (Poirier et al., J Biol Chem. 2009; 284(42):28856-28864). Immunofluorescence analyses were performed with an Olympus FluoView FV10i confocal microscope.

Row | Compound | LDLR Fold (relative LDLR protein levels) [Fold]
1 | O=C(Cn1[nH]c(=O)c2ccccc2c1=O)Nc1ccc(N2C(=O)c3cccc4cccc(c34)C2=O)cc1 [Compound 4, 2-(1,4-dioxo-1,2,3,4-tetrahydrophthalazin-2-yl)-N-(4-{2,4-dioxo-3-azatricyclo[7.3.1.0^{5,13}]trideca-1(13),5,7,9,11-pentaen-3-yl}phenyl)acetamide] | 1.6 ± 0.2
2 | CC(=O)N1CCC2(CC1)CC(=O)c1ccc(OCC(=O)N3CCc4ccccc43)cc1O2 [Compound 6, 1′-acetyl-7-[2-(2,3-dihydro-1H-indol-1-yl)-2-oxoethoxy]-3,4-dihydrospiro[1-benzopyran-2,4′-piperidin]-4-one] | 0.8 ± 0.3
3 | O=C(c1cn(CCN2CCCCC2)nn1)N1CCC2(C=Cc3ccccc32)CC1 [Compound 9, 1′-{1-[2-(piperidin-1-yl)ethyl]-1H-1,2,3-triazole-4-carbonyl}spiro[indene-1,4′-piperidine]] | 0.4 ± 0.1
4 | CC1(c2ccc3ccccc3c2)NC(=O)N(CC(=O)N2CCCCC2c2nc3ccccc3s2)C1=O (stereo not drawn) [Compound 11, 3-{2-[2-(1,3-benzothiazol-2-yl)piperidin-1-yl]-2-oxoethyl}-5-methyl-5-(naphthalen-2-yl)imidazolidine-2,4-dione] | 1.5 ± 0.4
5 | CC1(c2ccc3ccccc3c2)NC(=O)N(CC(=O)N2CCCC(c3nc4ccccc4s3)C2)C1=O (stereo not drawn) [Compound 12, 3-{2-[3-(1,3-benzothiazol-2-yl)piperidin-1-yl]-2-oxoethyl}-5-methyl-5-(naphthalen-2-yl)imidazolidine-2,4-dione] | 1.8 ± 0.6
6 | CC1(c2ccc3ccccc3c2)NC(=O)N(CC(=O)N2CCC(c3nc4ccccc4s3)CC2)C1=O (stereo not drawn) [Compound 13, 3-{2-[4-(1,3-benzothiazol-2-yl)piperidin-1-yl]-2-oxoethyl}-5-methyl-5-(naphthalen-2-yl)imidazolidine-2,4-dione] | 1.5 ± 0.7
7 | Cc1ccc(-c2cc(C(=O)N3CCc4c([nH]c5ccccc45)C3c3ccccn3)[nH]n2)s1 (stereo not drawn) [Compound 25, 2-{[3-(5-methyl-2-thienyl)-1H-pyrazol-5-yl]carbonyl}-1-(2-pyridinyl)-2,3,4,9-tetrahydro-1H-beta-carboline] | 1.1
8 | Cc1cccc(C2c3[nH]c4ccccc4c3CCN2C(=O)CCCN2CCCCC2=O)n1 (stereo not drawn) [Compound 28, 1-{4-[1-(6-methylpyridin-2-yl)-1H,2H,3H,4H,9H-pyrido[3,4-b]indol-2-yl]-4-oxobutyl}piperidin-2-one] | 1.0
9 | COc1ccccc1C1N=C(Nc2cccc(C)c2C)N=C2N=C(C)C=C(O)N21 (stereo not drawn) [Compound 32, 2-[(2,3-dimethylphenyl)amino]-4-(2-methoxyphenyl)-8-methyl-4H-pyrimido[1,2-a][1,3,5]triazin-6-ol] | 0.8
10 | COc1ccccc1[C@H]1N=C(N2CCN(c3cccc(Cl)c3)CC2)N=C2N=C(C)C=C(O)N21 [Compound 33, 2-[4-(3-chlorophenyl)piperazin-1-yl]-4-(2-methoxyphenyl)-8-methyl-1,4-dihydro-6H-pyrimido[1,2-a][1,3,5]triazin-6-ol] | 1.0
11 | O=C(CN1CCN(c2nnc(-c3ccccc3)c3ccccc23)CC1)N1CCCC1 [Compound 35, 2-[4-(4-phenylphthalazin-1-yl)piperazin-1-yl]-1-(pyrrolidin-1-yl)ethan-1-one] | 0.9
12 | Cc1ccc(-c2nnc(N3CCN(C(=O)CN4C(=O)c5ccccc5C4=O)CC3)c3ccccc23)cc1 [Compound 36, 2-(2-{4-[4-(4-methylphenyl)phthalazin-1-yl]piperazin-1-yl}-2-oxoethyl)-2,3-dihydro-1H-isoindole-1,3-dione] | 0.8
